According to US20250228806A1, “AMPK ACTIVATOR, MOTOR FUNCTION IMPROVING AGENT, MUSCULAR ENDURANCE IMPROVING AGENT, AND MUSCLE ATROPHY PREVENTING AGENT” (MARUZEN PHARMACEUTICALS CO., LTD., priority 2021, published 2025):

Experiments:
[1] = tested on: MuRF-1 (Gene Symbol: Trim63); test: Gene expression analysis (real-time PCR) in gastrocnemius muscle of muscle atrophy model: MuRF-1; type: in vivo, rat
Description: (§1) A gene expression analysis test using real-time PCR was conducted on the gastrocnemius muscle extracted in Testing Example 1 above. The tissue of the gastrocnemius muscle extracted in Testing Example 1 above was fragmented, and total RNA was extracted using RNeasy® Lipid Tissue Mini Kit (available from Qiagen). The obtained total RNA was quantified using a spectrophotometer, and the total RNA was prepared to be 71.4 ng/μL. Using 1000 ng of the total RNA as a template, a reverse transcription reaction was performed using SuperScript® VILO™ CDNA Synthesis Kit (available from Thermo Fisher Scientific). The reaction solution was 20 μL, and the operation was based on the manual attached to the above kit. […] Assay mixes corresponding to the genes to be analyzed were prepared for respective genes using corresponding Taqman® Gene Expression Assays (the assay ID for each gene is described previously). […] After the reaction was completed, the Ct value was calculated using analysis software (Fluidigm Real Time PCR Analysis 4.5.2, available from Fluidigm). The obtained Ct value of each gene was standardized with the Ct value of the internal standard gene GAPDH, and the relative value was calculated when the first group (control group) was set as the standard (1.00).

[2] = tested on: GLUT4 (Gene Symbol: Slc2a4); test: Gene expression analysis (real-time PCR) in gastrocnemius muscle of muscle atrophy model: GLUT4; type: in vivo, rat
Description: as §1

AMPK = test: Kinase activation analysis in muscle atrophy model: AMPK phosphorylation (ELISA); type: in vivo, rat; details: gastrocnemius muscle
Description: (§2) For the gastrocnemius muscle extracted in Testing Example 1 above, the phosphorylation state of AMPK and Akt, which are kinases contributing to increase in muscle mass, was evaluated by Luminex measurement and ELISA measurement.
(§3) The tissue of the gastrocnemius muscle extracted in Testing Example 1 above was fragmented, and a tissue extract was collected. The total protein concentration was quantified and used for Luminex measurement and ELISA measurement described below so that the total protein amount was 10 μg per well.
For AMPK, PathScan® Total AMPKα Sandwich ELISA Kit (available from Cell Signaling Technology, catalog number: 7961C) was used to measure the total AMPK (t-AMPK), and PathScan® Phospho-AMPKα (Thr172) ELISA Sandwich Kit (available from Cell Signaling Technology, catalog number: 7959C) was used to measure the Thr172 phosphorylated AMPK (p-AMPK).
(§4) As an internal standard, GAPDH was measured using Total GAPDH Magnetic Bead MAPmate™ (available from EMD Millipore, catalog number: 46-667MAG), and the measured values of the above AMPK and Akt were standardized.

[3] = tested on: PGC-1α (Gene Symbol: Ppargc1a); test: Gene expression analysis (real-time PCR) in gastrocnemius muscle of muscle atrophy model: PGC-1α; type: in vivo, rat
Description: as §1

IL-6 (Gene Symbol: Il6) = test: Gene expression analysis (real-time PCR) in gastrocnemius muscle of muscle atrophy model: IL-6; type: in vivo, rat
Description: as §1

rat muscle atrophy model = test: Muscle atrophy preventing action test (hindlimb suspension); type: in vivo
Description: Using the compound (I) (Sample 1), the muscle atrophy preventing action on a rat muscle atrophy model was tested in the following manner. Eight-week-old male Crlj:WI rats (purchased from Charles River Laboratories Japan, Inc.) were reared in an maintained environment of controlled temperature: 20.0-26.0° C., controlled humidity: 40.0-70.0% RH, light and dark for 12 hours each, and ventilation frequency: 12 times/hour. During the rearing period, solid feed (CRF-1, available from Oriental Yeast Co., Ltd.) was placed in a feeder and consumed ad libitum. However, during the hindlimb suspension rearing period described below, the rats were allowed to consume the feed by scattering it on the floor. For drinking water, tap water was available ad libitum using a water bottle. After a 5-day quarantine period and a 2-day acclimatization period, the rats were grouped with 8 rats per group as listed in Table 1 by random sampling so that the average weight and variance of each group were approximately equal. The rats were put into a state in which the tails of the rats were attached to a rail on the ceiling with a rat tail suspension clip and the hindlimbs of the rats were off the floor (hindlimb suspension), and muscle atrophy was induced in this state by rearing the rats for 14 days after the grouping on the grouping day. During the period of rearing with suspended hindlimbs, the rats were able to move within the rearing cage using their forelimbs, and were able to freely consume water and feed. The compound (I) (Sample 1) was dissolved in water for injection and administered orally by force using a syringe to which a feeding needle was attached. The grouping day was taken as the first day (day 1 of administration), the administration was performed once a day for 14 days, and the day after the 14th day of administration (day 15 of administration) was the last day of the rearing period. On the last day of the hindlimb suspension rearing (day 15 of administration), blood was collected from the abdominal aorta using a heparin-Na treated vacuum blood collection tube and a winged intravenous needle under isoflurane anesthesia. After blood collection, the rats were euthanized by exsanguination from the abdominal aorta, and the right and left gastrocnemius and soleus muscles were extracted. The extracted gastrocnemius and soleus muscles were weighed separately on the right and left sides (the values in Table 2 are the total values).

Akt = test: Kinase activation analysis in muscle atrophy model: Akt phosphorylation (Luminex); type: in vivo, rat; details: gastrocnemius muscle
Description: as §2, §3
For Akt, MILLIPLEX® MAP Phospho/Total Akt 2-Plex Magnetic Bead Kit 96-well Plate Assay (available from EMD Millipore, catalog number: 48-618MAG) was used to measure the total Akt amount (t-Akt) and the phosphorylated Akt (p-Akt, Ser473) all at once in one reaction system.
as §4

[4] = tested on: Atrogin-1 (Gene Symbol: Fbxo32); test: Gene expression analysis (real-time PCR) in gastrocnemius muscle of muscle atrophy model: Atrogin-1; type: in vivo, rat
Description: as §1

[5] = 125 mg/kg orally 14 days, standardized with GAPDH
[6] = administration group 125 mg/kg vs control group

phosphorylated form of AMPK compared to control group (in words) (AMPK; administration group 125 mg/kg): tendency to increase | phosphorylated form of Akt compared to control group (in words) (Akt; administration group 125 mg/kg): tendency to increase
Compound: COc1cc(CCC(=O)O)ccc1O [compound (I), 3-(4-hydroxy-3-methoxyphenyl) propionic acid]
MuRF-1 (Trim63) gene expression, relative value (control group = 1.00) [1, 5]: 0.81 | MuRF-1 gene expression compared to control group (in words) ([1]; administration group 125 mg/kg): tendency to decrease | GLUT4 (Slc2a4) gene expression, relative value (control group = 1.00) [2, 5]: 1.13 | GLUT4 gene expression compared to control group (in words) ([2]; administration group 125 mg/kg): tendency to increase | p-AMPK/t-AMPK (AMPK; 125 mg/kg orally 14 days, Thr172, standardized with GAPDH, control group 100.0): 120.8 | PGC-1α (Ppargc1a) gene expression, relative value (control group = 1.00) [3, 5]: 1.28 | PGC-1α gene expression compared to control group (in words) ([3]; administration group 125 mg/kg): tendency to increase | IL-6 (Il6) gene expression, relative value (control group = 1.00) (IL-6 (Gene Symbol: Il6); [5]): 1.10 | IL-6 gene expression compared to control group (in words) (IL-6 (Gene Symbol: Il6); administration group 125 mg/kg): tendency to increase | difference in body weight between groups (in words) (rat muscle atrophy model; [6]): no difference was observed | weight of the gastrocnemius muscle compared to control group (in words) (rat muscle atrophy model; [6]): increased | weight of the soleus muscle compared to control group (in words) (rat muscle atrophy model; [6]): increased | muscle mass (in words) (rat muscle atrophy model; administration of 125 mg/kg, rat muscle atrophy model): increased | Gastrocnemius muscle (total of right and left) weight (rat muscle atrophy model; hindlimb-suspended rats, 125 mg/kg orally once a day for 14 days, day 15, control 2.50): 2.69 g | Soleus muscle (total of right and left) weight (rat muscle atrophy model; hindlimb-suspended rats, 125 mg/kg orally once a day for 14 days, day 15, control 130.3): 149.1 mg | Body weight (rat muscle atrophy model; hindlimb-suspended rats, 125 mg/kg orally once a day for 14 days, day 15, control 310): 309 g | p-Akt/t-Akt (Akt; 125 mg/kg orally 14 days, Ser473, standardized with GAPDH, control group 100.0): 172.9 | Atrogin-1 (Fbxo32) gene expression, relative value (control group = 1.00) [4, 5]: 0.68 | Atrogin-1 gene expression compared to control group (in words) ([4]; administration group 125 mg/kg): tendency to decrease
